From patent publication US20250084039A1, “4-SUBSTITUTED AMINOISOQUINOLINE DERIVATIVES” (Purdue Research Foundation, priority 2016, published 2025)
Like-named read-outs stand apart in the source and are kept apart here.

How the values were obtained:
AKT1 = AKT1 (Homo sapiens (Human), UniProt P31749); assay: Reaction Biology HotSpot kinase assay; format: biochemical; details: 500 nM compound; read-out: Percentage kinase inhibition AKT1
Method in brief: (§1)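 HotSpot 33P transfer format. Enzyme, substrate and 500 nM test compound sit together for 20 min, then labelled and unlabelled ATP totalling 100 μM are added and phosphorylation proceeds for 2 h at room temperature. Products are captured on P81 cellulose paper, and activity is expressed relative to DMSO.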

ALK = ALK (Homo sapiens (Human), UniProt Q9UM73); assay: Reaction Biology HotSpot kinase assay; format: biochemical; details: 500 nM compound; read-out: Percentage kinase inhibition ALK
Method in brief: (§2)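 Read-out is percent remaining kinase activity relative to a DMSO vehicle reaction. Compound was tested once at 500 nM and preincubated 20 min with kinase and substrate, then the reaction ran 2 h at room temperature with 100 μM final ATP spiked with [γ-33P]ATP before spotting onto P81 ion-exchange paper.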

AXL = AXL (Homo sapiens (Human), UniProt P30530); assay: Reaction Biology HotSpot kinase assay; format: biochemical; details: 500 nM compound; read-out: Percentage kinase inhibition AXL
Method in brief: (§3)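 Compounds were screened at one concentration, 500 nM, in a radiometric kinase reaction. After a 20-minute preincubation with enzyme and substrate in pH 7.5 HEPES buffer (1% DMSO), the mixture received 100 μM ATP containing [γ-33P]ATP and was left 2 h at room temperature.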

BRAF = BRAF (Homo sapiens (Human), UniProt P15056); assay: Reaction Biology HotSpot kinase assay; format: biochemical; details: 500 nM compound; read-out: Percentage kinase inhibition BRAF
Method in brief: as §3

BTK = BTK (Homo sapiens (Human), UniProt Q06187); assay: Reaction Biology HotSpot kinase assay; format: biochemical; details: 500 nM compound; read-out: Percentage kinase inhibition BTK
Method in brief: as §2

EGFR = EGFR (Homo sapiens (Human), UniProt P00533); assay: Reaction Biology HotSpot kinase assay; format: biochemical; details: 500 nM compound; read-out: Percentage kinase inhibition EGFR
Method in brief: as §2

EPHA5 = EPHA5 (Homo sapiens (Human), UniProt P54756); assay: Reaction Biology HotSpot kinase assay; format: biochemical; details: 500 nM compound; read-out: Percentage kinase inhibition EPHA5
EPHA5, sequence (P54756 25-1037): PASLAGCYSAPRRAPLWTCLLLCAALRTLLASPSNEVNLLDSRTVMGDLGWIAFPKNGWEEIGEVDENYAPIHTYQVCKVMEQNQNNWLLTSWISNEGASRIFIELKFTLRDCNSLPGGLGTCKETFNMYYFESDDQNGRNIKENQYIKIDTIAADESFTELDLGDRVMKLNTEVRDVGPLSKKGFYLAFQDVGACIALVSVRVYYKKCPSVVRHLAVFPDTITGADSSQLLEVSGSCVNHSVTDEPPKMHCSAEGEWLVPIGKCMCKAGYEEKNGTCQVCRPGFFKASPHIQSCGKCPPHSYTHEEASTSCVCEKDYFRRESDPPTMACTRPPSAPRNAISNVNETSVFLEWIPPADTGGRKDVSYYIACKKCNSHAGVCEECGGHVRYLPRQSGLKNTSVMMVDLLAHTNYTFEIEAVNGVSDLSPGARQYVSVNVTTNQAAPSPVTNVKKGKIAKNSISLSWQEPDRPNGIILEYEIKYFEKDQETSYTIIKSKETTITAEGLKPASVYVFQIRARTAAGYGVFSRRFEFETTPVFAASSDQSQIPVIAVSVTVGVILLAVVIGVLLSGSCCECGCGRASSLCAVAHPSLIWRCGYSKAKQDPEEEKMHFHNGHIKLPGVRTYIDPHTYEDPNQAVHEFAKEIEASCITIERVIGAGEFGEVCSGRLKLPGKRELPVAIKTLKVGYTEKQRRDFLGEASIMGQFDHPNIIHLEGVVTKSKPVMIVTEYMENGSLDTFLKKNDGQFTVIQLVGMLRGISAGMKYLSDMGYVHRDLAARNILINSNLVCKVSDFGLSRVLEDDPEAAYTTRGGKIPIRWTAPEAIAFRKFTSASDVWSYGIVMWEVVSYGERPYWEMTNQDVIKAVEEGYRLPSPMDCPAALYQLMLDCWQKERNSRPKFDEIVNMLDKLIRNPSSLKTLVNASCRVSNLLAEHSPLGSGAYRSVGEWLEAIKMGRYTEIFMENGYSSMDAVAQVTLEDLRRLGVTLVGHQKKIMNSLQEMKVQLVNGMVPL
Method in brief: as §2

EPHB2 = EPHB2 (Homo sapiens (Human), UniProt P29323); assay: Reaction Biology HotSpot kinase assay; format: biochemical; details: 500 nM compound; read-out: Percentage kinase inhibition EPHB2
Method in brief: as §2

ERBB2/HER2 = ERBB2/HER2 (Homo sapiens (Human), UniProt P04626); assay: Reaction Biology HotSpot kinase assay; format: biochemical; details: 500 nM compound; read-out: Percentage kinase inhibition ERBB2/HER2
Method in brief: as §2

FGFR1 = FGFR1 (Homo sapiens (Human), UniProt P11362); assay: Reaction Biology HotSpot kinase assay; format: biochemical; details: 500 nM compound; read-out: Percentage kinase inhibition FGFR1
Method in brief: as §1

FGR = FGR (Homo sapiens (Human), UniProt P09769); assay: Reaction Biology HotSpot kinase assay; format: biochemical; details: 500 nM compound; read-out: Percentage kinase inhibition FGR
Method in brief: as §2

FLT1/VEGFR1 = FLT1/VEGFR1 (Homo sapiens (Human), UniProt P17948); assay: Reaction Biology HotSpot kinase assay; format: biochemical; details: 500 nM compound; read-out: Percentage kinase inhibition FLT1/VEGFR1
Method in brief: as §2

FLT3 = FLT3 (Homo sapiens (Human), UniProt P36888); assay: Reaction Biology HotSpot kinase assay; format: biochemical; details: for inhibition at 0.5 µM: read-out: % inhibition of FLT3 activity
Method in brief: as §1

FLT4/VEGFR3 = FLT4/VEGFR3 (Homo sapiens (Human), UniProt P35916); assay: Reaction Biology HotSpot kinase assay; format: biochemical; details: 500 nM compound; read-out: Percentage kinase inhibition FLT4/VEGFR3
Method in brief: as §2

KDR/VEGFR2 = KDR/VEGFR2 (Homo sapiens (Human), UniProt P35968); assay: Reaction Biology HotSpot kinase assay; format: biochemical; details: 500 nM compound; read-out: Percentage kinase inhibition KDR/VEGFR2
Method in brief: as §2

PDGFRa = PDGFRa (Homo sapiens (Human), UniProt P16234); assay: Reaction Biology HotSpot kinase assay; format: biochemical; details: 500 nM compound; read-out: Percentage kinase inhibition PDGFRa
Method in brief: as §2

PKCa = PKCa (Homo sapiens (Human), UniProt P17252); assay: Reaction Biology HotSpot kinase assay; format: biochemical; details: 500 nM compound; read-out: Percentage kinase inhibition PKCa
Method in brief: as §2

ROS/ROS1 = ROS/ROS1 (Homo sapiens (Human), UniProt P08922); assay: Reaction Biology HotSpot kinase assay; format: biochemical; details: 500 nM compound; read-out: Percentage kinase inhibition ROS/ROS1
ROS/ROS1, sequence (P08922 28-2347): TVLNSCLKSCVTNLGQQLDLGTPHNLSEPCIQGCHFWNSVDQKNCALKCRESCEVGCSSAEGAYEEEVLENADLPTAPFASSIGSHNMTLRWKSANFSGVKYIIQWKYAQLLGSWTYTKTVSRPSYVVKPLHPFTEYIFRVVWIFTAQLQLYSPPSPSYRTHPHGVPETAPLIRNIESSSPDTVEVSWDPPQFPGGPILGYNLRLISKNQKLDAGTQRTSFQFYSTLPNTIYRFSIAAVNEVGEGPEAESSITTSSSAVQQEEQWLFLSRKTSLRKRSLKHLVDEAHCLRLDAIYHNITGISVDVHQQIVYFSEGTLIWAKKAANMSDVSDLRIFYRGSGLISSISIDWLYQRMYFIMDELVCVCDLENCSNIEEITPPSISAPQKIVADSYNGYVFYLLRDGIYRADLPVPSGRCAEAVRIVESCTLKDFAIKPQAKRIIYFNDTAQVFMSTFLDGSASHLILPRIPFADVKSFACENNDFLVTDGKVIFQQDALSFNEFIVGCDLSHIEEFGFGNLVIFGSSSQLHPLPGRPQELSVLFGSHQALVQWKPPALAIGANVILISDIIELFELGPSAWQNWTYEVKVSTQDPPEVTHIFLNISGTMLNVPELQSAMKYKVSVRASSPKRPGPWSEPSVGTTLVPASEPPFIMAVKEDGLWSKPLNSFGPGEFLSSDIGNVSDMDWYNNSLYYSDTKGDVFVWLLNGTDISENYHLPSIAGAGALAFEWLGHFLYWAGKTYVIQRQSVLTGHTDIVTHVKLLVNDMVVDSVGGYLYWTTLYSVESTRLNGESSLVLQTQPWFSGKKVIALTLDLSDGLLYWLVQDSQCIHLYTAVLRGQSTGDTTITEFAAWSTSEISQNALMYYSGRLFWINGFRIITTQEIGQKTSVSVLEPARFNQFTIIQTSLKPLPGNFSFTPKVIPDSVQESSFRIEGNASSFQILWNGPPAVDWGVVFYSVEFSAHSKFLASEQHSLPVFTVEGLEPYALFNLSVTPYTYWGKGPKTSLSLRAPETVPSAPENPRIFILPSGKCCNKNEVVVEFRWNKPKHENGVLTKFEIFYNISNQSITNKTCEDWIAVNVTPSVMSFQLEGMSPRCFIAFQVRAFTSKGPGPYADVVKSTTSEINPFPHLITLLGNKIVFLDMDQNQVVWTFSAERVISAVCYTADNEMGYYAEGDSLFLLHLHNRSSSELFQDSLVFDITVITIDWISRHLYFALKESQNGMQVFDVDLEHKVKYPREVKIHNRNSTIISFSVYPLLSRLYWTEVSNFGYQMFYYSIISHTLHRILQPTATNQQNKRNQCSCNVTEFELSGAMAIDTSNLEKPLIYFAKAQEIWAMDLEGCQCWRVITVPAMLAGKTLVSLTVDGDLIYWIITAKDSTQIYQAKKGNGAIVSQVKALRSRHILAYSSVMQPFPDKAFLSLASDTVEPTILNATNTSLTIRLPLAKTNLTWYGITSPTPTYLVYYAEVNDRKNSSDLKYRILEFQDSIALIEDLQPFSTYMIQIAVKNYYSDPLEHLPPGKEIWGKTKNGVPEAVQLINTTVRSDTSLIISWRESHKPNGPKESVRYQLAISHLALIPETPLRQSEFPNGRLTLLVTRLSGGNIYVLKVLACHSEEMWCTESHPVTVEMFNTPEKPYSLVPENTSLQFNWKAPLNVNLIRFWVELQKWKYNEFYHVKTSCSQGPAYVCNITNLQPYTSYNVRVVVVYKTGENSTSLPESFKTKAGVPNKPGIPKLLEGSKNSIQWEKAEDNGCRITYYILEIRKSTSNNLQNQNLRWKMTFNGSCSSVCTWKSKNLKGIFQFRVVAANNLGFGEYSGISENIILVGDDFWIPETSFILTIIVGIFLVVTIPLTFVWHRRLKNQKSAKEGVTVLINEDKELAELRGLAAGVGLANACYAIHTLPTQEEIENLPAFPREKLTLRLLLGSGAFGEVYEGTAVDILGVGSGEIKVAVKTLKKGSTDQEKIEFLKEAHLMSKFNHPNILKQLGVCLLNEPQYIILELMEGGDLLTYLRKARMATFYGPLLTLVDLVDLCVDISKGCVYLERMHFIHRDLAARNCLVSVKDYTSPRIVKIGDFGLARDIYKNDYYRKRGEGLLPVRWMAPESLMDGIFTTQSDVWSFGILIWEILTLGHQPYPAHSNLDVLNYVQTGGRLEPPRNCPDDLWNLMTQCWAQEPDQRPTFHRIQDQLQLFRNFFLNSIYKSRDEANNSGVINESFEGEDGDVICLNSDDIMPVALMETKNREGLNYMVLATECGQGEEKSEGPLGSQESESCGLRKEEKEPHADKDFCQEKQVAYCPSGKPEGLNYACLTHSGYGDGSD
Method in brief: as §2

TIE2/TEK = TIE2/TEK (Homo sapiens (Human), UniProt Q02763); assay: Reaction Biology HotSpot kinase assay; format: biochemical; details: 500 nM compound; read-out: Percentage kinase inhibition TIE2/TEK
Method in brief: as §2

TRKB = TRKB (Homo sapiens (Human), UniProt Q16620); assay: Reaction Biology HotSpot kinase assay; format: biochemical; details: 500 nM compound; read-out: Percentage kinase inhibition TRKB
Method in brief: as §2

YES/YES1 = YES/YES1 (Homo sapiens (Human), UniProt P07947); assay: Reaction Biology HotSpot kinase assay; format: biochemical; details: 500 nM compound; read-out: Percentage kinase inhibition YES/YES1
Method in brief: as §2

c-MER = c-MER (Homo sapiens (Human), UniProt Q12866); assay: Reaction Biology HotSpot kinase assay; format: biochemical; details: 500 nM compound; read-out: Percentage kinase inhibition c-MER
Method in brief: as §2

c-Met = c-Met (Homo sapiens (Human), UniProt P08581); assay: Reaction Biology HotSpot kinase assay; format: biochemical; details: 500 nM compound; read-out: Percentage kinase inhibition c-Met
c-Met, sequence (P08581 25-1390): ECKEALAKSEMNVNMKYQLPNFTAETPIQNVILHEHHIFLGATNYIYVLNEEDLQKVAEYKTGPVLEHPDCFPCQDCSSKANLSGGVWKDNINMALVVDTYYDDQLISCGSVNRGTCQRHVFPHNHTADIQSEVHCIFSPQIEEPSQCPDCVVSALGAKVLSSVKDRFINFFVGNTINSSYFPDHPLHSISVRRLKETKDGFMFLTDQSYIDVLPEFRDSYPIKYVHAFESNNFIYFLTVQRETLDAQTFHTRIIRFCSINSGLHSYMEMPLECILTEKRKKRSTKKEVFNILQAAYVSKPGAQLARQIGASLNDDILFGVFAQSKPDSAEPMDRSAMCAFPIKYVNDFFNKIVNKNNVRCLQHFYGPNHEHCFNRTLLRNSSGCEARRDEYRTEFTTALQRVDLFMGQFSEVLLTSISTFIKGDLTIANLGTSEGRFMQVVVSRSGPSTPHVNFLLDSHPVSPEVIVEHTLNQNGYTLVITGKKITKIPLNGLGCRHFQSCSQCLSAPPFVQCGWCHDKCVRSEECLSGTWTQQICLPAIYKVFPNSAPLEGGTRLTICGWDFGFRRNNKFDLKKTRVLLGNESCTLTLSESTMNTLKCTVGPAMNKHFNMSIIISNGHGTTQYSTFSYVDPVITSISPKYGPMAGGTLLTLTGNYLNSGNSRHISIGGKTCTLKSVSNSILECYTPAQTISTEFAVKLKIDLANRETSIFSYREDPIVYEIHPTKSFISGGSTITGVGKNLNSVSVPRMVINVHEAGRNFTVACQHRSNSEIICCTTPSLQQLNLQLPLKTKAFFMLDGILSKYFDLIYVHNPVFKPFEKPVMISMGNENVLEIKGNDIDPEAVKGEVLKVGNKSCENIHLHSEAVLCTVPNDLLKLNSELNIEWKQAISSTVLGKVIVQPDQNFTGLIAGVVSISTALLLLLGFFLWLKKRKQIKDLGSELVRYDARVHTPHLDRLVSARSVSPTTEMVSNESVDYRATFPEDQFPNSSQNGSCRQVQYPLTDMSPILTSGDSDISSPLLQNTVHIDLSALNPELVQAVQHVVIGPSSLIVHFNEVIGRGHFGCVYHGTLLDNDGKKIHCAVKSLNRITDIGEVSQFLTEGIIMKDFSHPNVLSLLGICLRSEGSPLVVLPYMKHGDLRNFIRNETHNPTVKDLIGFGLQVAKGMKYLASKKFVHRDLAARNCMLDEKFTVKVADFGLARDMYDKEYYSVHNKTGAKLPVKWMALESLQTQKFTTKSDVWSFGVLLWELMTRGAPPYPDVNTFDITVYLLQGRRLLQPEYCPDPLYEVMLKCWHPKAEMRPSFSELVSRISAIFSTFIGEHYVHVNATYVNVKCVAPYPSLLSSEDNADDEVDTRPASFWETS
Method in brief: as §2

MOLM14 = assay: IC50 determination (proliferation assay, CellTiter-Blue); format: cell-based
Procedure: Cell lines were seeded into 96-well plates the afternoon prior to treatment. Approximately 18 hours later, compounds were diluted in dimethyl sulfoxide (DMSO) and added to cells. Plates were incubated for 72 hours and cells viability determined with CellTiter-Blue Cell Viability Assay (Promega, Madison, WI). Plates were read after 4 additional hours of incubation at 37° C. using plate reader (Bio-Tek, Winooski. VT). Data was analyzed and graphed using GraphPad Prism Software (Graphpad. La Jolla, CA). […]

Cc1ccc(C(=O)Nc2ccc(CN3CCN(C)CC3)c(C(F)(F)F)c2)cc1C#Cc1cnc(N)c2ccccc12 [HSN334, 3-((1-aminoisoquinolin-4-yl)ethynyl)-4-methyl-N-(4-((4-methylpiperazin-1-yl)methyl)-3-(trifluoromethyl)phenyl)benzamide]
inhibition at 0.5 µM (AKT1): 0%
inhibition at 0.5 µM (ALK): 0%
inhibition at 0.5 µM (AXL): 5%
inhibition at 0.5 µM (BRAF): 96%
inhibition at 0.5 µM (BTK): 46%
inhibition at 0.5 µM (EGFR): 61%
inhibition at 0.5 µM (EPHA5): 97%
inhibition at 0.5 µM (EPHB2): 98%
inhibition at 0.5 µM (ERBB2/HER2): 31%
inhibition at 0.5 µM (FGFR1): 96%
inhibition at 0.5 µM (FGR): 100%
inhibition at 0.5 µM (FLT1/VEGFR1): 79%
% inhibition of FLT3 activity (FLT3): 100%
inhibition at 0.5 µM (FLT3): 99%
inhibition at 0.5 µM (FLT4/VEGFR3): 79%
inhibition at 0.5 µM (KDR/VEGFR2): 94%
inhibition at 0.5 µM (PDGFRa): 86%
inhibition at 0.5 µM (PKCa): 0%
inhibition at 0.5 µM (ROS/ROS1): 0%
inhibition at 0.5 µM (TIE2/TEK): 99%
inhibition at 0.5 µM (TRKB): 41%
inhibition at 0.5 µM (YES/YES1): 100%
inhibition at 0.5 µM (c-MER): 0%
inhibition at 0.5 µM (c-Met): 14%
proliferation inhibition in words, MOLM-14 (MOLM14): potent proliferation inhibitors
IC50 (MOLM14; Homo sapiens, MOLM-14): 1.61 ± 0.02 nM

COc1cc2nc(N)nc(C#Cc3cc(C(=O)Nc4ccc(CN5CCN(C)CC5)c(C(F)(F)F)c4)ccc3C)c2cc1OC [HSN325]
inhibition at 0.5 µM (AKT1): 0%
inhibition at 0.5 µM (ALK): 2%
inhibition at 0.5 µM (AXL): 3%
inhibition at 0.5 µM (BRAF): 38%
inhibition at 0.5 µM (BTK): 4%
inhibition at 0.5 µM (EGFR): 0%
inhibition at 0.5 µM (EPHA5): 30%
inhibition at 0.5 µM (EPHB2): 3%
inhibition at 0.5 µM (ERBB2/HER2): 4%
inhibition at 0.5 µM (FGFR1): 58%
inhibition at 0.5 µM (FGR): 39%
inhibition at 0.5 µM (FLT1/VEGFR1): 42%
% inhibition of FLT3 activity (FLT3; 500 nM compound): 34%
inhibition at 0.5 µM (FLT3; 500 nM compound): 33%
inhibition at 0.5 µM (FLT4/VEGFR3): 42%
inhibition at 0.5 µM (KDR/VEGFR2): 90%
inhibition at 0.5 µM (PDGFRa): 53%
inhibition at 0.5 µM (PKCa): 5%
inhibition at 0.5 µM (ROS/ROS1): 0%
inhibition at 0.5 µM (TIE2/TEK): 47%
inhibition at 0.5 µM (TRKB): 0%
inhibition at 0.5 µM (YES/YES1): 41%
inhibition at 0.5 µM (c-MER): 0%
inhibition at 0.5 µM (c-Met): 15%
IC50 (MOLM14; Homo sapiens, MOLM-14): 456 ± 15 nM

Cc1ccc(C(=O)Nc2ccc(CN3CCN(C)CC3)c(C(F)(F)F)c2)cc1C#Cc1c(N)ncc2ccc(Cl)cc12 [HSN286]
inhibition at 0.5 µM (AKT1): 0%
inhibition at 0.5 µM (ALK): 0%
inhibition at 0.5 µM (AXL): 3%
inhibition at 0.5 µM (BRAF): 97%
inhibition at 0.5 µM (BTK): 41%
inhibition at 0.5 µM (EGFR): 44%
inhibition at 0.5 µM (EPHA5): 96%
inhibition at 0.5 µM (EPHB2): 96%
inhibition at 0.5 µM (ERBB2/HER2): 25%
inhibition at 0.5 µM (FGFR1): 98%
inhibition at 0.5 µM (FGR): 100%
inhibition at 0.5 µM (FLT1/VEGFR1): 86%
inhibition at 0.5 µM (FLT3): 97%
inhibition at 0.5 µM (FLT4/VEGFR3): 98%
inhibition at 0.5 µM (KDR/VEGFR2): 95%
inhibition at 0.5 µM (PDGFRa): 93%
inhibition at 0.5 µM (PKCa): 5%
inhibition at 0.5 µM (ROS/ROS1): 10%
inhibition at 0.5 µM (TIE2/TEK): 97%
inhibition at 0.5 µM (TRKB): 79%
inhibition at 0.5 µM (YES/YES1): 100%
inhibition at 0.5 µM (c-MER): 0%
inhibition at 0.5 µM (c-Met): 20%
IC50 (MOLM14): 0.72 ± 0.02 nM
IC50 (MOLM14; Homo sapiens, MOLM-14): 0.7 nM
